In patent publication US20250122219A1 (priority 2023, published 2025):
Read-outs that look alike come from different tables or passages of the source.

Assays:
HIV-1 (IIIB) = experiment: Antiviral assay in MT-4 cells; type: cell-based
Experimental: (§1) Compounds were tested in a high-throughput 384-well assay format for their ability to inhibit the replication of HIV-1 (IIIB) in MT-4 cells. Compounds were serially diluted (1.3) in DMSO on 384-well polypropylene plates and further diluted 200-fold into complete RPMI media (10% FBS, 1% P/S) using the Biotek Micro Flow and Labcyte ECHO acoustic dispenser. Each plate contained up to 8 test compounds, with negative (No Drug Control) and 5 μM AZT positive controls. MT-4 cells were pre-infected with 10 μL of either RPMI (mock-infected) or a fresh 1:250 dilution of HIV-1 IIIB concentrated virus stock. Infected and uninfected MT-4 cells were further diluted in complete RPMI media and added to each plate using a Micro Flow dispenser. After 5 days incubation in a humidified and temperature controlled incubator (37° C.), Cell Titer Glo (Promega) was added to the assay plates and chemiluminescence read using an Envision plate-reader.

[1] = Cytotoxicity assay in MT-4 cells; type: cell-based; conditions: human; uninfected MT-4 cells, 5 days incubation, Cell Titer Glo; read-out: MT4 CC50
Experimental: as §1
Assays were performed as above except uninfected MT-4 cells were added to each well containing test compound. In addition, […] puromycin was added to the last column of each assay plate to assess a base level of cytotoxicity.

[2] = Human immunodeficiency virus 1, MT4, 120 h, HIV-1 IIIB in MT-4 cells, 5 days incubation, Cell Titer Glo, read-out: MT4 EC50
[3] = Human immunodeficiency virus 1, IIIB, MT4, 120 h, read-out: MT4 EC50 (nM)

| Compound | EC50 (HIV-1 (IIIB); [2]) [nM] | CC50 at 5 days [1] [nM] | EC50 (HIV-1 (IIIB); [3]) [nM] |
| --- | --- | --- | --- |
| COCCOCCOC(=O)OCOc1c2n(cc(C(=O)NCc3ccc(F)cc3F)c1=O)[C@@H]1CN(C2=O)[C@@H](C)CC[C@]12CC(C)=NO2 [Example 23, (((3′S,5S,7′R)-10′-((2,4-difluorobenzyl)carbamoyl)-3,3′-dimethyl-1′,11′-dioxo-1′,4′,5′,11′-tetrahydro-3′H,4H,7′H-spiro[isoxazole-5,6′-[2,7]methanopyrido[1,2-a][1,4]diazonin]-12′-yl)oxy)methyl (2-(2-methoxyethoxy)ethyl) carbonate] | 2.79 | 27300 | – |
| COC1=NO[C@@]2(CC[C@H](C)N3C[C@H]2n2cc(C(=O)NCc4ccc(F)cc4F)c(=O)c(OC(=O)/C=C/C(=O)O)c2C3=O)C1 [Example 25, (E)-4-(((3′S,5S,7′R)-10′-((2,4-difluorobenzyl)carbamoyl)-3-methoxy-3′-methyl-1′,11′-dioxo-1′,4′,5′,11′-tetrahydro-3′H,4H,7′H-spiro[isoxazole-5,6′-[2,7]methanopyrido[1,2-a][1,4]diazonin]-12′-yl)oxy)-4-oxobut-2-enoic acid] | – | 16200 | 1.9 |
| CCCCCCCCCCCCCC(=O)Oc1c2n(cc(C(=O)NCc3ccc(F)cc3F)c1=O)[C@@H]1CN(C2=O)[C@@H](C)CC[C@]12CC(OC)=NO2 [Example 26, (3′S,5S,7′R)-10′-((2,4-difluorobenzyl)carbamoyl)-3-methoxy-3′-methyl-1′,11′-dioxo-1′,4′,5′,11′-tetrahydro-3′H,4H,7′H-spiro[isoxazole-5,6′-[2,7]methanopyrido[1,2-a][1,4]diazonin]-12′-yl tetradecanoate] | 2.62 | 22600 | – |
| CCCCCCCCCCCCCCCC(=O)Oc1c2n(cc(C(=O)NCc3ccc(F)cc3F)c1=O)[C@@H]1CN(C2=O)[C@@H](C)CC[C@]12CC(OC)=NO2 [Example 27, (3′S,5S,7′R)-10′-((2,4-difluorobenzyl)carbamoyl)-3-methoxy-3′-methyl-1′,11′-dioxo-1′,4′,5′,11′-tetrahydro-3′H,4H,7′H-spiro[isoxazole-5,6′-[2,7]methanopyrido[1,2-a][1,4]diazonin]-12′-yl palmitate] | 4.5 | ≥ 50000 | – |
| COC1=NO[C@@]2(CC[C@H](C)N3C[C@H]2n2cc(C(=O)NCc4ccc(F)cc4F)c(=O)c(OC(C)=O)c2C3=O)C1 [Example 28, (3′S,5S,7′R)-10′-((2,4-difluorobenzyl)carbamoyl)-3-methoxy-3′-methyl-1′,11′-dioxo-1′,4′,5′,11′-tetrahydro-3′H,4H,7′H-spiro[isoxazole-5,6′-[2,7]methanopyrido[1,2-a][1,4]diazonin]-12′-yl acetate] | 1.72 | 11600 | – |
| CCCCC(=O)Oc1c2n(cc(C(=O)NCc3ccc(F)cc3F)c1=O)[C@@H]1CN(C2=O)[C@@H](C)CC[C@]12CC(OC)=NO2 [Example 29, (3′S,5S,7′R)-10′-((2,4-difluorobenzyl)carbamoyl)-3-methoxy-3′-methyl-1′,11′-dioxo-1′,4′,5′,11′-tetrahydro-3′H,4H,7′H-spiro[isoxazole-5,6′-[2,7]methanopyrido[1,2-a][1,4]diazonin]-12′-yl pentanoate] | 1.61 | 12300 | – |
| COC1=NO[C@@]2(CC[C@H](C)N3C[C@H]2n2cc(C(=O)NCc4ccc(F)cc4F)c(=O)c(OC(=O)OC(C)C)c2C3=O)C1 [Example 30, (3′S,5S,7′R)-10′-((2,4-difluorobenzyl)carbamoyl)-3-methoxy-3′-methyl-1′,11′-dioxo-1′,4′,5′,11′-tetrahydro-3′H,4H,7′H-spiro[isoxazole-5,6′-[2,7]methanopyrido[1,2-a][1,4]diazonin]-12′-yl isopropyl carbonate] | – | 12600 | 1.3 |
| CCCC/C=C\CCCCCCCC(=O)Oc1c2n(cc(C(=O)NCc3ccc(F)cc3F)c1=O)[C@@H]1CN(C2=O)[C@@H](C)CC[C@]12CC(OC)=NO2 [Example 31, (3′S,5S,7′R)-10′-((2,4-difluorobenzyl)carbamoyl)-3-methoxy-3′-methyl-1′,11′-dioxo-1′,4′,5′,11′-tetrahydro-3′H,4H,7′H-spiro[isoxazole-5,6′-[2,7]methanopyrido[1,2-a][1,4]diazonin]-12′-yl (Z)-tetradec-9-enoate] | 2.39 | 15700 | – |
| CCC(=O)Oc1c2n(cc(C(=O)NCc3ccc(F)cc3F)c1=O)[C@@H]1CN(C2=O)[C@@H](C)CC[C@]12CC(OC)=NO2 [Example 32, (3′S,5S,7′R)-10′-((2,4-difluorobenzyl)carbamoyl)-3-methoxy-3′-methyl-1′,11′-dioxo-1′,4′,5′,11′-tetrahydro-3′H,4H,7′H-spiro[isoxazole-5,6′-[2,7]methanopyrido[1,2-a][1,4]diazonin]-12′-yl propionate] | 1.18 | 31700 | – |
| CCC(=O)Oc1c2n(cc(C(=O)NCc3ccc(F)cc3F)c1=O)[C@@H]1CN(C2=O)[C@@H](C)CC[C@]12CC(C)=NO2 [Example 33, (3′S,5S,7′R)-10′-((2,4-difluorobenzyl)carbamoyl)-3,3′-dimethyl-1′,11′-dioxo-1′,4′,5′,11′-tetrahydro-3′H,4H,7′H-spiro[isoxazole-5,6′-[2,7]methanopyrido[1,2-a][1,4]diazonin]-12′-yl propionate] | 1.42 | 22600 | – |
| CCCC(=O)Oc1c2n(cc(C(=O)NCc3ccc(F)cc3F)c1=O)[C@@H]1CN(C2=O)[C@@H](C)CC[C@]12CC(OC)=NO2 [Example 34, (3′S,5S,7′R)-10′-((2,4-difluorobenzyl)carbamoyl)-3-methoxy-3′-methyl-1′,11′-dioxo-1′,4′,5′,11′-tetrahydro-3′H,4H,7′H-spiro[isoxazole-5,6′-[2,7]methanopyrido[1,2-a][1,4]diazonin]-12′-yl butyrate] | 0.218 | 16300 | – |
| CCCC(=O)Oc1c2n(cc(C(=O)NCc3ccc(F)cc3F)c1=O)[C@@H]1CN(C2=O)[C@@H](C)CC[C@]12CC(C)=NO2 [Example 35, (3′S,5S,7′R)-10′-((2,4-difluorobenzyl)carbamoyl)-3,3′-dimethyl-1′,11′-dioxo-1′,4′,5′,11′-tetrahydro-3′H,4H,7′H-spiro[isoxazole-5,6′-[2,7]methanopyrido[1,2-a][1,4]diazonin]-12′-yl butyrate] | 0.203 | 14100 | – |
| CCCCCC(=O)Oc1c2n(cc(C(=O)NCc3ccc(F)cc3F)c1=O)[C@@H]1CN(C2=O)[C@@H](C)CC[C@]12CC(OC)=NO2 [Example 36, (3′S,5S,7′R)-10′-((2,4-difluorobenzyl)carbamoyl)-3-methoxy-3′-methyl-1′,11′-dioxo-1′,4′,5′,11′-tetrahydro-3′H,4H,7′H-spiro[isoxazole-5,6′-[2,7]methanopyrido[1,2-a][1,4]diazonin]-12′-yl hexanoate] | 0.345 | 19600 | – |
| CCCCCC(=O)Oc1c2n(cc(C(=O)NCc3ccc(F)cc3F)c1=O)[C@@H]1CN(C2=O)[C@@H](C)CC[C@]12CC(C)=NO2 [Example 37, (3′S,5S,7′R)-10′-((2,4-difluorobenzyl)carbamoyl)-3,3′-dimethyl-1′,11′-dioxo-1′,4′,5′,11′-tetrahydro-3′H,4H,7′H-spiro[isoxazole-5,6′-[2,7]methanopyrido[1,2-a][1,4]diazonin]-12′-yl hexanoate] | 0.403 | 17400 | – |
